≈ marks a conversion by molar mass, not a printed value.
What was measured:
[1] = system: WM1346 (NRAS mutant) cell line; assay: Reverse phase protein array analysis (RPPA), WM1346; type: cell-based, human; settings: WM1346, 1 μM, 24 h
Protocol: (§1) UACC903 and WM1346 cells were treated with DMSO (controls) or 1 μM Compound 38 for 24 h in triplicate. Cells were lysed with lysis buffer (1% Triton X-100, 50 mM HEPES, pH 7.4, 150 mM NaCl, 1.5 mM MgCl2, 1 mM EGTA, 100 mM NaF, 10 mM Na pyrophosphate, 1 mM Na3VO4, 10% glycerol, with freshly added protease and phosphatase inhibitors) and centrifuged at 13,000 g for 20 minutes. Denatured protein lysates containing the same amount of protein were then subjected to RPPA analysis at the RPPA Core Facility, Md. Anderson Cancer Center, as previously described (Tibes. R., et al. Reverse phase protein array: validation of a novel proteomic technology and utility for analysis of primary leukemia specimens and hematopoietic stem cells. Molecular cancer therapeutics 5, 2512-2521 (2006)),
(§2) A reverse phase protein array (RPPA) analysis of BRAF- and NRAS-mutant melanomas was performed to identify protein networks affected by Compound 38 (Table 4).

[2] = Aqueous Solubility in 1xPBS, pH 7.4; type: physicochemical; settings: pH 7.4, aqueous buffer
A375 = assay: 48 h Cytotoxicity A375; type: cell-based; settings: Homo sapiens, A-375
[3] = system: parental and BRAFi-resistant melanoma cultures (A375, WM793, Lu1205); assay: 2D growth and colony-forming efficiency in parental and BRAFi-resistant melanoma cultures; type: cell-based, human; settings: parental (sensitive) and BRAFi-resistant cultures
Protocol: For the colony formation assay, cells were plated in triplicate at 500 cells/well in 6-well plates and grown for 16 h before compounds were added for 1-2 weeks, depending on cell line. Colonies were stained with Accustain Crystal Violet solution (Sigma-Aldrich) for 30 min. Plates were rinsed with water, and colonies (>50 cells per clone) were counted. Colony formation efficiency was calculated relative to the number of colonies in control (DMSO)-treated wells. For soft agar assays, melanoma cells were mixed with agar at a final concentration of 0.35% and layered on top of 0.7% agar in 6-well plates. Media supplemented with different compounds was added to plates and changed once per week. After 4 weeks, colonies were counted in 10 random high-power fields.
To confirm the effect of Compound 38 on the eIF4F complex in BRAFi resistant cultures on neoplastic growth, Compound 38 effectiveness on their two-dimensional (2D) growth in vitro was assessed. […] Parental and BRAFi-resistant NF1-mutant melanomas (A) were monitored for their response to Compound 38 at the indicated concentrations and for their ability to form CFE (B) (A375: FIG. 16A and FIG. 16B, WM793: FIG. 17A and FIG. 17B, Lu1205: FIG. 18A and FIG. 18B). Effectiveness of Compound 38 in NF1-mutant melanoma was further confirmed in primary cultures (FIG. 19A and FIG. 19B).

[4] = system: UACC903 (BRAF mutant) cell line; assay: Reverse phase protein array analysis (RPPA), UACC903; type: cell-based, human; settings: UACC903, 1 μM, 24 h
Protocol: as §1, §2

[5] = molecular target: HCV cap-independent translation; assay: In vitro translation assay, FF-HCV-Ren construct, cap-independent (Ren luciferase); type: biochemical, rabbit reticulocyte lysates
Outline: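 First, reticulocyte lysate mixed 1:1 with -Met and -Leu translation mixes is exposed to compound for 1 h at room temperature. Next, 0.1 μg reporter RNA is added and translation runs 2 h at 30° C. Finally, sequential Dual-Glo reagents give firefly then Renilla luminescence.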

[6] = Hepatic Microsome Stability Human; type: in vitro ADME
[7] = Hepatic Microsome Stability Mouse; type: in vitro ADME

## O=C(/C=C/c1cncc(F)c1)c1c(-c2ccccc2)c2cc(Cl)ccc2[nH]c1=O [Compound 38, 6-Chloro-3-[3-(5-fluoro-pyridin-3-yl)-acryloyl]-4-phenyl-1H-quinolin-2-one]
[1]
  Ratio [Compound 38/DMSO] A-Raf: 0.90
  Ratio [Compound 38/DMSO] AR: 0.72
  Ratio [Compound 38/DMSO] ATM: 0.82
  Ratio [Compound 38/DMSO] ATR: 0.76
  Ratio [Compound 38/DMSO] BRCA2: 0.90
  Ratio [Compound 38/DMSO] C-Raf: 0.93
  Ratio [Compound 38/DMSO] Chk1: 0.94
  Ratio [Compound 38/DMSO] Ets-1: 0.91
  Ratio [Compound 38/DMSO] GCN5L2: 0.86
  Ratio [Compound 38/DMSO] INPP4b: 0.88
  Ratio [Compound 38/DMSO] MSH6: 0.78
  Ratio [Compound 38/DMSO] PI3K-p85: 0.96
  Ratio [Compound 38/DMSO] PI3K-p110-alpha: 0.95
  Ratio [Compound 38/DMSO] Rad51: 0.78
  Ratio [Compound 38/DMSO] Raptor: 0.87
  Ratio [Compound 38/DMSO] Rictor_pT1135: 0.91
  Ratio [Compound 38/DMSO] S6_pS235_S236: 0.70
  Ratio [Compound 38/DMSO] S6_pS240_S244: 0.65
  Ratio [Compound 38/DMSO] Stat5a: 0.67
  Ratio [Compound 38/DMSO] Tuberin: 0.68
  Ratio [Compound 38/DMSO] YB1: 0.69
  Ratio [Compound 38/DMSO] c-Kit: 0.94
  Ratio [Compound 38/DMSO] c-Myc: 0.80
  Ratio [Compound 38/DMSO] mTOR: 0.71
  Ratio [Compound 38/DMSO] mTOR_pS2448: 0.76
  Ratio [Compound 38/DMSO] p70-S6K_pT389: 0.81
[2]
  solubility: 5.6 µg/mL (≈ 13.8 µM)
A375
  IC50: < 2000 nM
[3]
  Growth in 2D and colony-forming efficiency (CFE): effectively attenuated in both parental (sensitive) and resistant cultures
[4]
  Ratio [Compound 38/DMSO] A-Raf: 0.91
  Ratio [Compound 38/DMSO] AR: 0.92
  Ratio [Compound 38/DMSO] ATM: 0.79
  Ratio [Compound 38/DMSO] ATR: 0.84
  Ratio [Compound 38/DMSO] BRCA2: 0.96
  Ratio [Compound 38/DMSO] C-Raf: 0.92
  Ratio [Compound 38/DMSO] Chk1: 0.89
  Ratio [Compound 38/DMSO] Ets-1: 0.92
  Ratio [Compound 38/DMSO] GCN5L2: 0.88
  Ratio [Compound 38/DMSO] INPP4b: 0.93
  Ratio [Compound 38/DMSO] MSH6: 0.76
  Ratio [Compound 38/DMSO] PI3K-p85: 0.93
  Ratio [Compound 38/DMSO] PI3K-p110-alpha: 0.94
  Ratio [Compound 38/DMSO] Rad51: 0.93
  Ratio [Compound 38/DMSO] Raptor: 0.86
  Ratio [Compound 38/DMSO] Rictor_pT1135: 0.84
  Ratio [Compound 38/DMSO] S6_pS235_S236: 0.63
  Ratio [Compound 38/DMSO] S6_pS240_S244: 0.61
  Ratio [Compound 38/DMSO] Stat5a: 0.85
  Ratio [Compound 38/DMSO] Tuberin: 0.62
  Ratio [Compound 38/DMSO] YB1: 0.77
  Ratio [Compound 38/DMSO] c-Kit: 0.86
  Ratio [Compound 38/DMSO] c-Myc: 0.72
  Ratio [Compound 38/DMSO] mTOR: 0.90
  Ratio [Compound 38/DMSO] mTOR_pS2448: 0.72
  Ratio [Compound 38/DMSO] p70-S6K_pT389: 0.82
[5]
  IC50: 2 to 10 µM
[6]
  Hepatic Microsome Stability (% Remaining at 1 hr) Human: 24.12 % Remaining
[6]; no NADPH
  Hepatic Microsome Stability (% Remaining at 1 hr) Human (no NADPH): 57.84 % Remaining
[7]
  Hepatic Microsome Stability (% remaining at 1 Hr) Mouse: 38.69 % remaining
[7]; no NADPH
  Hepatic Microsome Stability (% remaining at 1 Hr) Mouse (no NADPH): 53.97 % remaining

Reference: patent publication US10577349B2 (Sanford Burnham Prebys Medical Discovery Institute, priority 2015, dated 2020)
